Source: patent publication US10351586B2, “Cytidine derivative dimers and applications thereof” (CHANGZHOU FANGYUAN PHARMACEUTICAL CO., LTD, priority 2014, dated 2019)
Marks after values point to notes of the source that are not given here.

Assays:
[1] = system: HCT-116 human colon cancer xenografts; test: Tumor growth inhibition of HCT-116 human colon cancer xenografts in nude mice; type: in vivo, Balb/c nude mice; conditions: for Relative tumor proliferation rate (T/C %) / Relative tumor volume (RTV) / Tumor growth inhibition rate (TGI %) / Tumor volume of HCT-116 human colon cancer xenografts: single IP injection (QD×1), D1 and D2 400 mg/kg, D3 350 mg/kg, D4 300 mg/kg; for Tumor volume of HCT-116 human colon cancer xenografts: Mean±SEM
Summary of the method: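 HCT-116 cells grown in F-12 with 10% FBS, inoculated into nude mice at ~3×10^7 cells/mL. Tumour diameter measured three times weekly, volume as V=3/4π(D/2)^3; activity given as TGI (%) versus control and T/C (%) from relative tumour volume Vt/V0.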

[2] = Body weight / toxicity of a single intraperitoneal injection in HCT-116 colon tumor-bearing nude mice; conditions: D3 350 mg/kg, D4 300 mg/kg; for Average rate of weight change of the animals / Average weight of the animals: single IP injection (QD×1), D1 and D2 400 mg/kg; for Average weight of the animals: Mean±SEM
Description: Corresponding test substance was weighed and put into a 5 mL glass tube. The test substance was dissolved in ethanol under the stirring by a 5 mm magnetic stirrer. After a complete dissolution, Cremophor EL was added with continuous stirring. Immediately prior to the user of the test substance, the labeled amount of physiological saline was added and stirred.
Animal experiments were performed. The animals were female Balb/c nude mice at specific pathogen free (SPF) level and were supplied from Shanghai Sippr/BK Lab Animal Ltd. (Shanghai, China). […] These animals were at the age of about 7 weeks to about 9 weeks at the beginning of the experiments and had the weight of about 18 grams to about 22 grams at the beginning of the experiment. The animals had acclimatization duration of about 5 days to about 7 days. Animals were numbered using their tail number. The animal room was maintained at about 23±2° C., 40%-70% humidity, with alternating light and dark every 12 hours.
4.2 Animal inoculation and grouping were performed. Under aseptic conditions, each nude mice was injected with 0.1 mL cell suspension into the right hind leg subcutaneously (3×10^6 cell/mouse). When the size of the tumor grew to have a volume of about 60-150 mm^3, nude mice with a similar tumor size and a desirable shape (e.g., with substantially same shape such as a substantially spherical shape, without having irregular shapes or multiple tumors grouped together) were selected and grouped. In the experiment, there were six mice in each group.
The mice in control group were injected with a mixed solution including ethanol, Cremophor EL and normal saline at a ratio of 5:5:90.
The mice were weighed 3 times every week.
4.4 Clinical symptoms were provided. All clinical symptoms of each animal were recorded at the beginning of the experiments and during the experiments. The observation was performed at the same time every day.
After administration of the test substance, when the weight reduction was >20%, when the animal was dying, or when the tumor volume exceeds about 2800 mm^3, the animal were euthanized by applying CO2. The tumor was separated and weighed, an autopsy was performed, and visual inspection was conducted and recorded on whether there were pathological changes in the organs.

[3] = D1 400 mg/kg Day 7, D2 400 mg/kg Day 9, D3 350 mg/kg Day 11, D4 300 mg/kg Day 11, single IP

CCCCOC(=O)Nc1ccn([C@H]2O[C@@H](COC(=O)CCC(=O)OC[C@H]3O[C@@H](n4ccc(NC(=O)OCCCC)nc4=O)C(F)(F)[C@@H]3O)[C@H](O)C2(F)F)c(=O)n1 (stereo in doubt) [Compound D2, 1,5-di-[4-N-(n-butoxycarbonyl)-2′-deoxy-2′,2′-difluoro-cytidine]glutarate]
Relative tumor proliferation rate, minimum [1, 3]: 14.41%
Tumor inhibition rate, maximum [1, 3]: 94.79%
Relative tumor proliferation rate (T/C %) ([1]; Day 0): 0.00%
Relative tumor volume (RTV) ([1]; Day 0): 1.00
Tumor growth inhibition rate (TGI %) ([1]; Day 0): 0.00%
Tumor volume of HCT-116 human colon cancer xenografts ([1]; Day 0): 53.09 ± 9.33** mm^3
Relative tumor proliferation rate (T/C %) ([1]; Day 1): 50.15%
Relative tumor volume (RTV) ([1]; Day 1): 0.89 ± 0.10
Tumor growth inhibition rate (TGI %) ([1]; Day 1): 71.87%
Tumor volume of HCT-116 human colon cancer xenografts ([1]; Day 1): 50.78 ± 14.16** mm^3
Relative tumor proliferation rate (T/C %) ([1]; Day 2): 40.78%
Relative tumor volume (RTV) ([1]; Day 2): 0.95 ± 0.15
Tumor growth inhibition rate (TGI %) ([1]; Day 2): 74.81%
Tumor volume of HCT-116 human colon cancer xenografts ([1]; Day 2): 55.89 ± 18.82** mm^3
Relative tumor proliferation rate (T/C %) ([1]; Day 4): 25.19%
Relative tumor volume (RTV) ([1]; Day 4): 0.73 ± 0.19
Tumor growth inhibition rate (TGI %) ([1]; Day 4): 84.53%
Tumor volume of HCT-116 human colon cancer xenografts ([1]; Day 4): 45.96 ± 20.25** mm^3
Relative tumor proliferation rate (T/C %) ([1]; Day 7): 16.63%
Relative tumor volume (RTV) ([1]; Day 7): 0.52 ± 0.23
Tumor growth inhibition rate (TGI %) ([1]; Day 7): 91.71%
Tumor volume of HCT-116 human colon cancer xenografts ([1]; Day 7): 35.87 ± 21.79** mm^3
Relative tumor proliferation rate (T/C %) ([1]; Day 9): 14.41%
Relative tumor volume (RTV) ([1]; Day 9): 0.46 ± 0.17
Tumor growth inhibition rate (TGI %) ([1]; Day 9): 94.79%
Tumor volume of HCT-116 human colon cancer xenografts ([1]; Day 9): 30.75 ± 16.74** mm^3
Relative tumor proliferation rate (T/C %) ([1]; Day 11): 16.77%
Relative tumor volume (RTV) ([1]; Day 11): 0.87 ± 0.35
Tumor growth inhibition rate (TGI %) ([1]; Day 11): 94.13%
Tumor volume of HCT-116 human colon cancer xenografts ([1]; Day 11): 57.29 ± 33.0** mm^3
Relative tumor proliferation rate (T/C %) ([1]; Day 14): 18.33%
Relative tumor volume (RTV) ([1]; Day 14): 1.80 ± 0.69
Tumor growth inhibition rate (TGI %) ([1]; Day 14): 91.88%
Tumor volume of HCT-116 human colon cancer xenografts ([1]; Day 14): 116.87 ± 66.85** mm^3
Relative tumor proliferation rate (T/C %) ([1]; Day 16): 21.64%
Relative tumor volume (RTV) ([1]; Day 16): 2.66 ± 0.88
Tumor growth inhibition rate (TGI %) ([1]; Day 16): 90.63%
Tumor volume of HCT-116 human colon cancer xenografts ([1]; Day 16): 169.73 ± 88.15** mm^3
Relative tumor proliferation rate (T/C %) ([1]; Day 18): 21.99%
Relative tumor volume (RTV) ([1]; Day 18): 4.20 ± 1.02
Tumor growth inhibition rate (TGI %) ([1]; Day 18): 86.88%
Tumor volume of HCT-116 human colon cancer xenografts ([1]; Day 18): 262.10 ± 111.14** mm^3
Relative tumor proliferation rate (T/C %) ([1]; Day 21): 34.57%
Relative tumor volume (RTV) ([1]; Day 21): 8.09 ± 1.52
Tumor growth inhibition rate (TGI %) ([1]; Day 21): 79.99%
Tumor volume of HCT-116 human colon cancer xenografts ([1]; Day 21): 489.13 ± 174.91 mm^3
Relative tumor proliferation rate (T/C %) ([1]; Day 23): 42.87%
Relative tumor volume (RTV) ([1]; Day 23): 8.48 ± 1.37
Tumor growth inhibition rate (TGI %) ([1]; Day 23): 78.74%
Tumor volume of HCT-116 human colon cancer xenografts ([1]; Day 23): 501.98 ± 170.25 mm^3
Relative tumor proliferation rate (T/C %) ([1]; Day 25): 44.51%
Relative tumor volume (RTV) ([1]; Day 25): 9.62 ± 1.48
Tumor growth inhibition rate (TGI %) ([1]; Day 25): 77.96%
Tumor volume of HCT-116 human colon cancer xenografts ([1]; Day 25): 569.05 ± 189.18 mm^3
Relative tumor proliferation rate (T/C %) ([1]; Day 28): 56.94%
Relative tumor volume (RTV) ([1]; Day 28): 12.03 ± 1.50
Tumor growth inhibition rate (TGI %) ([1]; Day 28): 74.35%
Tumor volume of HCT-116 human colon cancer xenografts ([1]; Day 28): 689.78 ± 203.52 mm^3
Relative tumor proliferation rate (T/C %) ([1]; Day 30): 63.87%
Relative tumor volume (RTV) ([1]; Day 30): 15.85 ± 1.92
Tumor growth inhibition rate (TGI %) ([1]; Day 30): 67.91%
Tumor volume of HCT-116 human colon cancer xenografts ([1]; Day 30): 900.52 ± 250.44 mm^3
Inhibition of growth of HCT-116 human colon cancer xenografts (in words) ([1]; single IP injection, 300-400 mg/kg): higher tumor inhibition rates
Average rate of weight change of the animals ([2]; Day 0): 0.00%
Average weight of the animals ([2]; Day 0): 19.87 ± 0.25 g
Average rate of weight change of the animals ([2]; Day 1): −0.08 ± 0.74%
Average weight of the animals ([2]; Day 1): 19.85 ± 0.28 g
Average rate of weight change of the animals ([2]; Day 2): −8.54 ± 1.31 %
Average weight of the animals ([2]; Day 2): 18.17 ± 0.31 g
Average rate of weight change of the animals ([2]; Day 4): −10.63 ± 2.13 %
Average weight of the animals ([2]; Day 4): 17.75 ± 0.44 g
Average rate of weight change of the animals ([2]; Day 7): −6.98 ± 1.43%
Average weight of the animals ([2]; Day 7): 18.48 ± 0.40 g
Average rate of weight change of the animals ([2]; Day 9): 0.21 ± 1.42%
Average weight of the animals ([2]; Day 9): 19.92 ± 0.45 g
Average rate of weight change of the animals ([2]; Day 11): 2.72 ± 1.85%
Average weight of the animals ([2]; Day 11): 20.42 ± 0.53 g
Average rate of weight change of the animals ([2]; Day 14): 4.87 ± 2.08 %
Average weight of the animals ([2]; Day 14): 20.85 ± 0.60 g
Average rate of weight change of the animals ([2]; Day 16): 6.32 ± 1.65 %
Average weight of the animals ([2]; Day 16): 21.13 ± 0.51 g
Average rate of weight change of the animals ([2]; Day 18): 8.83 ± 1.43 %
Average weight of the animals ([2]; Day 18): 21.63 ± 0.51 g
Average rate of weight change of the animals ([2]; Day 21): 4.22 ± 1.23 %
Average weight of the animals ([2]; Day 21): 20.72 ± 0.46 g
Average rate of weight change of the animals ([2]; Day 23): 3.66 ± 1.05 %
Average weight of the animals ([2]; Day 23): 20.60 ± 0.40 g
Average rate of weight change of the animals ([2]; Day 25): 5.07 ± 1.44%
Average weight of the animals ([2]; Day 25): 20.88 ± 0.48 g
Average rate of weight change of the animals ([2]; Day 28): 1.57 ± 1.50%
Average weight of the animals ([2]; Day 28): 20.18 ± 0.44 g
Average rate of weight change of the animals ([2]; Day 30): 2.28 ± 1.75%
Average weight of the animals ([2]; Day 30): 20.33 ± 0.55 g
Toxicity in tumor-bearing mice (in words) ([2]; single IP injection, D2 400 mg/kg, judged from body weight versus control): no toxicity
